# Measurements as given in PubChem BioAssay AID1902 (Broad Institute, 2009).
# Calls of active or inactive are those of the source.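 Rule for the calls: active = EC50 no more than a set limit of log units above the highest dose; inactive = the rest.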
# Target: S. pyogenes SKKanGAS, kanamycin survival, BacTiterGlo, 6 h
# Assay: SKKanGAS survival reduction under kanamycin, dose response, streptokinase promoter inhibitor project, SKKanGAS strain, luminescence, dose confirmation (AID 1902);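 note: lower survival reflects blocked streptokinase promoter driving kanamycin resistance gene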
row,Structure (SMILES),EC50
1,CC(C)(C)c1ccc(OCCCC(=O)NC2=NCCS2)cc1,3870 nM
2,c1ccc(-c2nc(N3CCCCCC3)nc(-n3ccnc3)n2)cc1,2410 nM
3,O=C(N/N=C/c1cc([N+](=O)[O-])ccc1O)/C(=C\c1cccs1)NC(=O)c1ccccc1,1810 nM
4,O=c1c2c(nc(NCCO)n1CC1CCCCC1)-c1ccccc1CC21CCCC1,4160 nM
5,CCN(c1ccc(OC)cc1)S(=O)(=O)c1nnc(NC(=O)c2ccccc2Cl)s1,3310 nM
6,O=C(O)c1cc(-c2ccc(-c3c(-c4ccc5c(c4)OCO5)noc3-c3ccsc3)cc2)nc2ccccc12,1840 nM
7,O=C(NC(=S)NNC(=O)c1ccco1)c1ccc(Br)cc1,772 nM
8,COc1ccc(Cn2c(-c3ccco3)nc3oc4cc(OC)ccc4c(=O)c3c2=O)cc1,14700 nM
9,CC(=O)OCC1=C(C(=O)O)N2C(=O)C(NC(=O)Cn3nc(C(F)F)c(Cl)c3C)C2SC1 (configuration not stated),< 60 nM
10,Cn1c(-c2cc(Br)ccc2O)n[nH]c1=S,9920 nM
11,Cc1cc(Cl)ccc1NC(=S)NCCC(c1ccccc1)c1ccccc1,11100 nM
12,C[C@H]1COC2=C1C(=O)C(=O)c1c2ccc2c1CCCC2(C)C,3950 nM
13,O=C(/C=C/c1cccc(Cl)c1)c1ccc([N+](=O)[O-])o1,2230 nM
14,CCCc1nc(NCc2ccccc2)c(C#N)c2c1CCCC2,2930 nM
15,Nc1nc(CN2CCC(Cc3ccccc3)CC2)nc(Nc2ccccc2)n1,1950 nM
16,Cc1ccc(CNC(=S)Nc2ccc(NS(=O)(=O)c3ccc(C)cc3)cc2)cc1,8280 nM
17,COC(=O)c1ccc(NC(=O)c2nc(S(=O)(=O)Cc3cccc(C)c3)ncc2Cl)cc1,1040 nM
18,CNC[C@H](Cc1ccccc1)NC[C@@H](Cc1cccc2ccccc12)NCCc1ccc(C)cc1,4280 nM
19,COc1cc(Cl)cc(/C=C/c2ccc3cccc(O)c3n2)c1OC,951 nM
20,CCOC(=O)c1c(C)oc2c1c(C(c1ccccc1)N1CCOCC1)c(O)c1ccccc12 (configuration not stated),2660 nM
21,Oc1c(N=NC(=S)Nc2ccccc2F)c2ccccc2n1Cc1ccc(F)cc1,892 nM

row,Structure (SMILES),EC50
1,CCCCCCCCCCOC(=O)Cn1c(COc2ccccc2)[n+](C)c2ccccc21,7960 nM
2,O=c1c2ccccc2oc2cc(-c3ccc4[nH]ccc4c3)ccc12,4850 nM
3,CC(=O)O[C@H]1C[C@@]2(C)[C@@H](C[C@@H](O)[C@H]3[C@@]4(C)CC[C@@H](O)[C@@H](C)[C@@H]4CC[C@@]32C)/C1=C(\CCC=C(C)C)C(=O)O,177 nM
4,CCn1nc(-c2ccccc2)nc2c(=O)n(C)c(=O)nc1-2,1540 nM
5,Cc1cccc2sc(NNC(=O)c3ccc(S(=O)(=O)N4CCc5ccccc5C4)cc3)nc12,368 nM
6,CCOc1cc(/C=N/Nc2cc(C)nc(-n3nc(C)cc3C)n2)ccc1O,853 nM
7,CC(Oc1ccc(Cl)cc1Cl)C(=O)Nc1ccc2oc(-c3ccncc3)nc2c1 (configuration not stated),6240 nM
8,COc1cccc(N=Nc2c(N)[nH]n3c(=O)cc(-c4ccccc4)nc23)c1,1780 nM
9,Cc1ccc(S(=O)(=O)NCC(=O)OCC(=O)N2N=C(c3ccc(Cl)cc3)CC2c2ccco2)cc1C (configuration not stated),8170 nM
10,Cc1c(C)n(Cc2ccc(F)cc2)c2ccc(C(=O)N3CCN(c4ccccn4)CC3)cc12,6100 nM
11,O=C(Oc1cccc(/C=N/Nc2nc(Nc3ccccc3)nc(N3CCOCC3)n2)c1)c1ccco1,2030 nM
12,CCCc1cc(NCc2ccccn2)n2nc(C)c(-c3ccccc3)c2n1,6400 nM
13,Cc1cc(-c2c(C)[nH]n(-c3ccc(Cl)cc3)c2=O)n[nH]1,1780 nM
14,COc1ccccc1CNC(=O)c1ccc(-c2ccccc2Cl)o1,9960 nM
15,CCOC(=O)c1cc(-c2ccc3c(c2)OCCO3)nc2c1c(C)nn2CCC#N,3420 nM
16,O=C(COc1ccccc1-c1ccccc1)N/N=C/c1ccc2ccccc2c1,6470 nM
17,COc1ccccc1C(=O)NNC(=S)NC(=O)c1sc2ccccc2c1Cl,< 60 nM
18,CC(C)(CN=C1NS(=O)(=O)c2ccccc21)CNC(=O)c1ccccc1,> 15000 nM (inactive)
19,O=[N+]([O-])c1ccc(N2N=C(c3ccccc3)CC2c2ccccc2O)cc1 (configuration not stated),2250 nM
20,CC1=Nc2ccccc2/C1=C/c1sc(=N)n(-c2nccs2)c1O,452 nM
21,O=[N+]([O-])c1cc(Cl)cc(/C=N\Nc2ccccn2)c1O,2890 nM
